This is an account of results in patent publication US4517191A, “1-Amino-1,8-naphthyridine compounds useful as bactericides” (Sterling Drug Inc., priority 1983, dated 1985).

≈ marks a conversion by molar mass, not a printed value.

The subject of one assay is Bacteria. Put plainly: in vitro antibacterial activity, serial dilution, stated for the bacteria as a whole. It counts as cell-based. Particulars: at the highest concentrations tested (62.5-500 mcg/ml). As to the method:
(§1) The in vitro antibacterial activity of the compounds of the invention was determined by conventional serial dilution procedures. Bacterial cultures were grown in tryptose phosphate broth or brain heart infusion broth (containing heat-inactivated normal horse serum for tests with S. pyogenes) overnight at 37° C. and subsequently diluted in double strength broth to provide bacterial inocula of about 2×10^5 cells/ml. Aqueous solutions of the compounds of Formula I where R" is hydrogen were prepared by dissolving the free acid form in 0.5N sodium hydroxide. The solutions were diluted with sterile distilled water to 1000 mcg/ml of compound in terms of the free acid. Serial two-fold dilutions of the compound stock solutions were prepared in water and 0.5 ml of each dilution was transferred to sets of tubes, one set for each bacterial inoculum. Each tube was then inoculated with 0.5 ml of the appropriate culture, resulting in a final bacterial concentration of about 1×10^5 cells/ml. The minimal inhibitory concentration (MIC), defined as the lowest concentration of the test compound to inhibit visible bacterial growth, was recorded after 18-20 hours of static incubation at 37° C. The results are recorded in Table I:
These are intermediates for the compounds of Examples 5 and 7.

Assay [1] has as its system Escherichia coli Vogel. Put plainly: in vivo antibacterial activity in infected female mice (E. coli). The following applies: sc, 168 h, E. coli i.p. infection, medicated once s.c. one-half hour post infection, deaths recorded for seven days, read-out: Protective Dose (PD50). The procedure: (§2) The in vivo antibacterial activity of the compounds of the invention was determined in female mice, 18-20 grams each, by the following procedure:
(§3) Aqueous solutions of the compounds of Formula I where R" is hydrogen were prepared by dissolving the free acid form in dilute sodium hydroxide and diluting the solution with distilled water to the desired volume.
(§4) Cultures of Escherichia coli Vogel prepared in brain heart infusion broth, and cultures of Klebsiella pneumoniae 39645 grown in tryptose phosphate broth with 5% rabbit serum diluted in the same broth were used to infect the mice as follows:
E coli: mice were inoculated intraperitoneally with 0.5 ml of the bacerial test inoculum (1.87×10^7 and 5×10^6 cells/ml respectively).
Mice infected with E. coli were medicated once (0.5 ml) one-half hour post infection, the test compound being administered by the subcutaneous (s.c.) route. Deaths were recorded daily for seven days.
(§5) Groups of ten animals each for four or five dose levels were thus treated and the number of survivors in each group recorded. The fifty percent protective dose values (PD50) were then calculated.

Assay [2] concerns Klebsiella pneumoniae 39645. Put plainly: in vivo antibacterial activity in infected female mice (K. pneumoniae). Particulars: Klebsiella pneumoniae, 39645, sc, 336 h, K. pneumoniae i.m. infection, s.c. 17 h and 1 h preinfection, 6 h postinfection, twice a day for next three days, deaths recorded for fourteen days, read-out: Protective Dose (PD50). As to the method:
as §2, §3, §4
K. pneumoniae: mice were inoculated intramuscularly in the right hind leg with 0.2 ml of the bacterial test inoculum (2.05×10^4 cells/ml).
Mice infected with K. pneumoniae were medicated at the following times: seventeen hours and one hour preinfection, six hours postinfection and twice a day for the next three days. The test compound was administered the subcutaneous (0.2 ml) route. Deaths were recorded daily for fourteen days.
as §5

Assay [3] relates to Escherichia coli Vogel. Put plainly: in vitro antibacterial activity, serial dilution (MIC). It counts as cell-based. The following applies: 18-20 hours at 37° C., about 1×10^5 cells/ml, read-out: Minimal Inhibitory Concentration. As to the method: as §1, with “C.” for “C. The results are recorded in Table I:”
Assay [4] concerns Klebsiella pneumoniae 39645. The description is as above. It counts as cell-based. Particulars: 18-20 hours at 37° C., about 1×10^5 cells/ml, read-out: Minimal Inhibitory Concentration. The procedure: as §1, with “C.” for “C. The results are recorded in Table I:”
The test system of the next assay is Proteus mirabilis MGH-1. Described as above. It counts as cell-based. Particulars: MGH1, 18-20 hours at 37° C., about 1×10^5 cells/ml, read-out: Minimal Inhibitory Concentration. As to the method: as §1, with “C.” for “C. The results are recorded in Table I:”
A further assay has as its system Proteus vulgaris 9920. The description is as above. It counts as cell-based. Particulars: 18-20 hours at 37° C., about 1×10^5 cells/ml, read-out: Minimal Inhibitory Concentration. As to the method:
as §1, with “C.” for “C. The results are recorded in Table I:”

Assay [5] relates to Pseudomonas aeruginosa MGH-2. The assay is described as above. It counts as cell-based. Particulars: MGH2, 18-20 hours at 37° C., about 1×10^5 cells/ml, read-out: Minimal Inhibitory Concentration. As to the method:
as §1, with “C.” for “C. The results are recorded in Table I:”

Assay [6] relates to Staphylococcus aureus Smith. The assay is described as above. The assay is classed as cell-based. Particulars: 18-20 hours at 37° C., about 1×10^5 cells/ml, read-out: Minimal Inhibitory Concentration. The procedure:
as §1, with “C.” for “C. The results are recorded in Table I:”

Assay [7] concerns Streptococcus pyogenes C203. The description is as above. It counts as cell-based. Particulars: broth containing heat-inactivated normal horse serum, 18-20 hours at 37° C., about 1×10^5 cells/ml, read-out: Minimal Inhibitory Concentration. The procedure:
as §1, with “C.” for “C. The results are recorded in Table I:”

Turning to `CCOC(=O)c1cn(N(C=O)CC)c2nc(C)ccc2c1=O` [Example 6, Ethyl 1-(N-formylethylamino)-1,4-dihydro-7-methyl-4-oxo-1,8-naphthyridine-3-carboxylate], in the assay on Bacteria, the “in vitro antibacterial activity” value is “inactive”. Further, the figures for the ED50 (in the assay on Escherichia coli Vogel [1]; in assay [2]) were 53.5 mg/kg and greater than 200 mg/kg, respectively.

As for `Cc1ccc2c(=O)c(C(=O)O)cn(N)c2n1` [Example 2, 1-Amino-1,4-dihydro-7-methyl-4-oxo-1,8-naphthyridine-3-carboxylic acid], the “in vitro antibacterial activity” value in the assay with Bacteria is “inactive”.

On to `CCOC(=O)c1cn(N)c2nc(C)ccc2c1=O` [Example 1, Ethyl 1-amino-1,4-dihydro-7-methyl-4-oxo-1,8-naphthyridine-3-carboxylate], for which the “in vitro antibacterial activity” value with Bacteria was “inactive”.

Take `CCNn1cc(C(=O)O)c(=O)c2ccc(C)nc21` [Example 7, 1-Ethylamino-1,4-dihydro-7-methyl-4-oxo-1,8-naphthyridine-3-carboxylic acid]: the MIC in the assay with Escherichia coli Vogel [3] was 31.3 mg/L (≈ 127 µM); in assay [4], 125 mg/L (≈ 506 µM); in the assay on Proteus mirabilis MGH-1, 250 mg/L (≈ 1010 µM); with Proteus vulgaris 9920 it was 15.6 mg/L (≈ 63.1 µM); in assay [5], greater than 500 mg/L; in assay [6], greater than 500 mg/L. The MIC in assay [7] is greater than 500 mg/L. Besides, the ED50 was 93 mg/kg in the assay with Escherichia coli Vogel [1] and greater than 200 mg/kg in [2].

`CCOC(=O)c1cn(N(C)C=O)c2nc(C)ccc2c1=O` [Example 4, Ethyl 1-(N-formylmethylamino)-1,4-dihydro-7-methyl-4-oxo-1,8-naphthyridine-3-carboxylate]: in the assay on Bacteria, the “in vitro antibacterial activity” value was “inactive”.

For `CNn1cc(C(=O)O)c(=O)c2ccc(C)nc21` [Example 5, 1,4-Dihydro-7-methyl-1-methylamino-4-oxo-1,8-naphthyridine-3-carboxylic acid], the MIC was 31.3 mg/L (≈ 134 µM) in the assay on Escherichia coli Vogel [3]; 62.5 mg/L (≈ 268 µM) in assay [4]; 62.5 mg/L (≈ 268 µM) with Proteus mirabilis MGH-1; 62.5 mg/L (≈ 268 µM) with Proteus vulgaris 9920; greater than 500 mg/L in assay [5]; greater than 500 mg/L in [6]. In addition, the MIC in assay [7] is greater than 500 mg/L. Moreover, the ED50 is 141 mg/kg with Escherichia coli Vogel [1] and greater than 200 mg/kg in assay [2].
